Legend:
Assay type in all cases: biochemical
human ME1 enzyme = molecular target: T1, human ME1 enzyme (Homo sapiens, UniProt P48163); assay: ME1 inhibition assay (diaphorase/resazurin coupled fluorescence); conditions: 10 μM compound concentration; read-out: Malic Enzyme 1 % inhibition (10 μM)
T1 sequence (P48163 1-572): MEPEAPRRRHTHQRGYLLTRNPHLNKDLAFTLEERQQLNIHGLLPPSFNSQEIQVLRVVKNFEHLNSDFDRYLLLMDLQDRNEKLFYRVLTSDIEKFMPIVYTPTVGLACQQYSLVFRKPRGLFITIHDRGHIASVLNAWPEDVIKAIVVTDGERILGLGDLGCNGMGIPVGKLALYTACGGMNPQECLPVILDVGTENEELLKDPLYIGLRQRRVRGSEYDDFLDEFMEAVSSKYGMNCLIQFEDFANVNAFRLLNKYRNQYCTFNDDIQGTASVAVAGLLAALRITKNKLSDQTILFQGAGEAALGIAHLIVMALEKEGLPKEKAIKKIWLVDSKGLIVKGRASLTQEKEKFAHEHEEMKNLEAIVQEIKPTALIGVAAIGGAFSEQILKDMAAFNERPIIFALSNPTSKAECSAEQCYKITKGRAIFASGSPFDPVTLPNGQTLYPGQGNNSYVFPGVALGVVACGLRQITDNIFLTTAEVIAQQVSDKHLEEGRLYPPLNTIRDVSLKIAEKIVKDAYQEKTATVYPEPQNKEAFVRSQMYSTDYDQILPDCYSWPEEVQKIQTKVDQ
Description: (§1) ME1 catalyzes the oxidative decarboxylation of malate to pyruvate with conversion of the co-factor β-NADP+ to β-NADPH. In the fluorescence assay, a coupled reaction is set up where in an enzyme, Diaphorase, utilizes NADPH generated by ME1, to convert the dye resazurin to a fluorescent molecule resorufin. Resorufin has a characteristic fluorescence with excitation/emission at 540/600 nm (SLAS Discov., 2017 April 1:2472555217706649).
The enzyme activity inhibition assay is set up in a 200 μL final reaction volume in a 96-well plate. As per the experimental design, 2 μL of the compounds at 100× the desired concentration (10 μM) in DMSO were added to the respective wells with 178 μL of assay buffer (50 mM Tris-HCl pH 7.5, 10 mM MnCl2, 2 mM L-malate, 10 μM Resazurin and 0.01 mg/ml Diapharose). The 96-well plate was incubated on a plate shaker at room temperature for 15 minutes protected from light. The well contents were gently mixed by adding 10 μL of 20 nM human ME1 enzyme to the wells and the plate was incubated on a shaker at room temperature for 5 minutes protected from light. Suitable ‘enzyme only’ and ‘no enzyme’ controls were included in the experiment. The enzymatic reaction was started by adding 10 μL of 0.3 mM D-NADP+. The reaction was gently mixed and the plate was initially left on a shaker at room temperature for −7 minutes protected from light. Later, the plate was incubated without shaking at room temperature for 2 hours. At the end of 2 hours, the fluorescence of the wells was measured at excitation 540 nm and emission 600 nm. The % enzyme activity of the compounds is obtained by normalizing the data with enzyme only (100%) and no enzyme controls (0%) using GraphPad Prism software 7.04.

human ME3 enzyme = molecular target: T2, human ME3 enzyme (Homo sapiens, UniProt Q16798); assay: ME3 inhibition assay (diaphorase/resazurin coupled fluorescence); conditions: 10 μM compound concentration; read-out: Malic Enzyme 3 % inhibition (10 μM)
T2 sequence (Q16798 1-604): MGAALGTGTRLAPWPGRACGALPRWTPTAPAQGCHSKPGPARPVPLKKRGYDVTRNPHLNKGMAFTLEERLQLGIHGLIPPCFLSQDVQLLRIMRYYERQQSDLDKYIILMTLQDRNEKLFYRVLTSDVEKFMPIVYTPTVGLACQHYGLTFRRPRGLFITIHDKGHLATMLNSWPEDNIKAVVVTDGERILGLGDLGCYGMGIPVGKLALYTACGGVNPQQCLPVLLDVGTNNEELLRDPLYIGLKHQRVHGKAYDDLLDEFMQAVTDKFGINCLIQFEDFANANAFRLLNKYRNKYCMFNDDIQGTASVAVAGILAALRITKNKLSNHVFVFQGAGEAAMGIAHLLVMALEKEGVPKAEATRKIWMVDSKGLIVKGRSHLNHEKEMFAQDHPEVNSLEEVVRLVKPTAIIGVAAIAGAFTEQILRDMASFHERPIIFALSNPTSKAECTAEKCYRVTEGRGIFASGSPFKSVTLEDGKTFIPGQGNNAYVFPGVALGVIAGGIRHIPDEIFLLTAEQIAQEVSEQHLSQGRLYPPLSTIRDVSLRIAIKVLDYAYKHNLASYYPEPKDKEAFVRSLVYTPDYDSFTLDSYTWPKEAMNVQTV
Method in brief: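 Coupled read-out: NADPH made by human ME3 (20 nM stock) drives diaphorase conversion of resazurin (50 μM) to resorufin; buffer 50 mM Tris-HCl pH 7.5, 10 mM MnCl2, 3 mM L-malate.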

human ME2 enzyme = human ME2 enzyme (Homo sapiens, UniProt P23368); assay: ME2 inhibition assay (diaphorase/resazurin coupled fluorescence); conditions: 10 μM compound concentration; read-out: Malic Enzyme 2 % inhibition (10 μM)
Description: as §1, with “ME2” for “ME1”, “β-NAD+” for “β-NADP+”, “β-NADH.” for “β-NADPH.”, “NADH” for “NADPH”, “ME2,” for “ME1,”
The enzyme activity inhibition assay is set up in a 200 μL final reaction volume in a 96-well plate. As per the experimental design, 2 μL of the compounds at 100× the desired concentration (10 μM) in DMSO were added to the respective wells with 178 μL of assay buffer (50 mM Tris-HCl pH 7.5, 10 mM MnCl2, 7 mM L-malate, 50 μM Resazurin and 0.025 mg/ml Diapharose). The 96-well plate was incubated on a plate shaker at room temperature for 15 minutes protected from light. The well contents were gently mixed by adding 10 μL of 60 nM human ME2 enzyme to the wells and the plate was incubated on a shaker at room temperature for 5 minutes protected from light. Suitable ‘enzyme only’ and ‘no enzyme’ controls were included in the experiment. The enzymatic reaction was started by adding 10 μL of 2 mM β-NAD+. The reaction was gently mixed and the plate was initially left on a shaker at room temperature for −7 minutes protected from light. Later, the plate was incubated without shaking at room temperature for 2 hours. At the end of 2 hours, the fluorescence of the wells was measured at excitation 540 nm and emission 600 nm. The % enzyme activity of the compounds is obtained by normalizing the data with enzyme only (100%) and no enzyme controls (0%) using GraphPad Prism software 7.04.

Sequence of human ME2 enzyme (P23368 19-584): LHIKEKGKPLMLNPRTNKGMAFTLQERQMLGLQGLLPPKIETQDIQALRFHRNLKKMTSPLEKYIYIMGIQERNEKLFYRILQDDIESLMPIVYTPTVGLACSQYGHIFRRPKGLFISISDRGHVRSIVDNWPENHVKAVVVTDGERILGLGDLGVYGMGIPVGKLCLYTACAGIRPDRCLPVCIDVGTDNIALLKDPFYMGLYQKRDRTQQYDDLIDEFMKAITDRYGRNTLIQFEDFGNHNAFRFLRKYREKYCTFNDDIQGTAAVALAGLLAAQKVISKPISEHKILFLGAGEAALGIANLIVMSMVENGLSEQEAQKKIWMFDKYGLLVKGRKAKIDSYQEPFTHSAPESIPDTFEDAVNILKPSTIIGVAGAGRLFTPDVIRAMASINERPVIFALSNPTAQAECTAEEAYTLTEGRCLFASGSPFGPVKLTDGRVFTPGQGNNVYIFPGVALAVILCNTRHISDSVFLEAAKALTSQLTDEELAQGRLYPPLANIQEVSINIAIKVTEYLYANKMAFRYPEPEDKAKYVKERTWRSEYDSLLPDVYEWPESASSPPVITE

O=C(C(c1ccccc1)c1ccccc1)N1CCN(c2ccc(O)cn2)CC1 [I.48, 1-[4-(5-Hydroxy-2-pyridyl)-piperazin-1-yl]-2,2-diphenyl-ethanone]
inhibition at 10 µM (human ME1 enzyme): 70 to 89% | inhibition at 10 µM (human ME3 enzyme): > 90% | inhibition at 10 µM (human ME2 enzyme): 70 to 89%

O=C(Cc1ccccc1Oc1ccccc1)N1CCN(c2ccc(O)cc2)CC1 [I.49, 1-[4-(4-hydroxyphenyl)piperazin-1-yl]-2-(2-phenoxyphenyl)ethanone]
inhibition at 10 µM (human ME1 enzyme): > 90% | inhibition at 10 µM (human ME3 enzyme): > 90% | inhibition at 10 µM (human ME2 enzyme): > 90%

O=C(c1ccnc(N2CCCCC2)c1)N1CCN(c2ccc(O)cc2)CC1 [I.50, [4-(4-Hydroxy-phenyl)-piperazin-1-yl]-[2-(1-piperidyl)-4-pyridyl]-methanone]
inhibition at 10 µM (human ME1 enzyme): > 90% | inhibition at 10 µM (human ME3 enzyme): > 90% | inhibition at 10 µM (human ME2 enzyme): > 90%

O=C(CCc1c[nH]c2ccccc12)N1CCN(c2ccc(O)cn2)CC1 [I.51, 1-[4-(5-Hydroxy-pyridin-2-yl)-piperazin-1-yl]-3-(1H-indol-3-yl)-propan-1-one]
inhibition at 10 µM (human ME1 enzyme): 70 to 89% | inhibition at 10 µM (human ME3 enzyme): > 90% | inhibition at 10 µM (human ME2 enzyme): 70 to 89%

Cc1cc(N2CCN(C(=O)Cc3ccccc3)CC2)ccc1O [I.52, 1-[4-(4-Hydroxy-3-methyl-phenyl)-piperazin-1-yl]-2-phenyl-ethanone]
inhibition at 10 µM (human ME1 enzyme): > 90% | inhibition at 10 µM (human ME3 enzyme): > 90% | inhibition at 10 µM (human ME2 enzyme): > 90%

O=C(CCc1c2ccccc2cc2ccccc12)N1CCN(c2ccc(O)cc2)CC1 [I.53, 3-Anthracen-9-yl-1-[4-(4-hydroxy-phenyl)-piperazin-1-yl]-propan-1-one]
inhibition at 10 µM (human ME1 enzyme): > 90% | inhibition at 10 µM (human ME3 enzyme): > 90% | inhibition at 10 µM (human ME2 enzyme): > 90%

O=C(c1c[nH]c2ccccc2c1=O)N1CCN(c2ccc(O)cn2)CC1 [I.54, 3-[4-(5-Hydroxy-2-pyridyl)-piperazine-1-carbonyl]-1H-quinolin-4-one]
inhibition at 10 µM (human ME1 enzyme): 70 to 89% | inhibition at 10 µM (human ME3 enzyme): > 90% | inhibition at 10 µM (human ME2 enzyme): 50 to 69%

O=C(CC12CC3CC(CC(C3)C1)C2)N1CCN(c2ccc(O)cn2)CC1 [I.55, 2-(1-adamantyl)-1-[4-(5-hydroxy-2-pyridyl)piperazin-1-yl]ethanone]
inhibition at 10 µM (human ME1 enzyme): > 90% | inhibition at 10 µM (human ME3 enzyme): > 90% | inhibition at 10 µM (human ME2 enzyme): 70 to 89%

O=C(CC12CC3CC(CC(O)(C3)C1)C2)N1CCN(c2ccc(O)cn2)CC1 [I.56, 2-(3-Hydroxy-1-adamantyl)-1-[4-(5-hydroxy-2-pyridyl)-piperazin-1-yl]ethanone]
inhibition at 10 µM (human ME1 enzyme): 50 to 69% | inhibition at 10 µM (human ME3 enzyme): > 90% | inhibition at 10 µM (human ME2 enzyme): 70 to 89%

O=C(CNCC12CC3CC(CC(C3)C1)C2)N1CCN(c2ccc(O)cn2)CC1 [I.57, 2-(1-adamantylmethylamino)-1-[4-(5-hydroxy-2-pyridyl)piperazin-1-yl]ethanone]
inhibition at 10 µM (human ME1 enzyme): 70 to 89% | inhibition at 10 µM (human ME3 enzyme): > 90% | inhibition at 10 µM (human ME2 enzyme): 70 to 89%

O=C(C(c1ccc(Cl)cc1)c1ccc(Cl)cc1)N1CCN(c2ccc(O)cn2)CC1 [I.58, 2,2-bis(4-Chloro-phenyl)-1-[4-(5-hydroxy-2-pyridyl)-piperazin-1-yl]ethanone]
inhibition at 10 µM (human ME1 enzyme): 70 to 89% | inhibition at 10 µM (human ME3 enzyme): > 90% | inhibition at 10 µM (human ME2 enzyme): 50 to 69%

O=C(c1cn(CC2CC2)c2ccccc2c1=O)N1CCN(c2ccc(O)cn2)CC1 [I.59, 1-(Cyclo-propyl-methyl)-3-[4-(5-hydroxy-2-pyridyl)-piperazine-1-carbonyl]-quinolin-4-one]
inhibition at 10 µM (human ME1 enzyme): 70 to 89% | inhibition at 10 µM (human ME3 enzyme): > 90% | inhibition at 10 µM (human ME2 enzyme): 70 to 89%

O=C(C=C1c2ccccc2-c2ccccc21)N1CCN(c2ccc(O)cn2)CC1 [I.60, 2-Fluoren-9-ylidene-1-[4-(5-hydroxy-2-pyridyl)-piperazin-1-yl]ethanone]
inhibition at 10 µM (human ME1 enzyme): 70 to 89% | inhibition at 10 µM (human ME3 enzyme): > 90% | inhibition at 10 µM (human ME2 enzyme): 70 to 89%

O=C(CC1c2ccccc2-c2ccccc21)N1CCN(c2ccc(O)cn2)CC1 [I.61, 2-(9H-Fluoren-9-yl)-1-[4-(5-hydroxy-2-pyridyl)-piperazin-1-yl]ethanone]
inhibition at 10 µM (human ME1 enzyme): 70 to 89% | inhibition at 10 µM (human ME3 enzyme): > 90% | inhibition at 10 µM (human ME2 enzyme): 70 to 89%

O=C(Cc1c[nH]c2ccccc12)N1CCN(c2ccc(O)cn2)CC1 [I.62, 1-[4-(5-Hydroxy-pyridin-2-yl)-piperazin-1-yl]-2-(1H-indol-3-yl)-ethanone]
inhibition at 10 µM (human ME1 enzyme): 70 to 89% | inhibition at 10 µM (human ME3 enzyme): > 90% | inhibition at 10 µM (human ME2 enzyme): 70 to 89%

O=C(c1c[nH]c2ncccc12)N1CCN(c2ccc(O)cn2)CC1 [I.63, [4-(5-Hydroxy-pyridin-2-yl)-piperazin-1-yl]-(1H-pyrrolo[2,3-b]pyridin-3-yl)-methanone]
inhibition at 10 µM (human ME1 enzyme): 70 to 89% | inhibition at 10 µM (human ME3 enzyme): > 90% | inhibition at 10 µM (human ME2 enzyme): 70 to 89%

O=C(c1c2ccccc2cc2ccccc12)N1CCN(c2ccc(O)cn2)CC1 [I.64]
inhibition at 10 µM (human ME1 enzyme): 70 to 89% | inhibition at 10 µM (human ME3 enzyme): > 90% | inhibition at 10 µM (human ME2 enzyme): 50 to 69%

O=C(CCCc1ccccc1)N1CCN(c2ccc(O)cn2)CC1 [I.65, 1-[4-(5-Hydroxy-pyridin-2-yl)-piperazin-1-yl]-4-phenylbutan-1-one]
inhibition at 10 µM (human ME1 enzyme): 70 to 89% | inhibition at 10 µM (human ME3 enzyme): > 90% | inhibition at 10 µM (human ME2 enzyme): 70 to 89%

O=C(CCc1ccncc1)N1CCN(c2ccc(O)cn2)CC1 [I.66, 1-[4-(5-Hydroxy-pyridin-2-yl)-piperazin-1-yl]-3-pyridin-4-yl-propan-1-one]
inhibition at 10 µM (human ME1 enzyme): 70 to 89% | inhibition at 10 µM (human ME3 enzyme): > 90% | inhibition at 10 µM (human ME2 enzyme): 70 to 89%

O=C(C1Cc2ccccc2C1)N1CCN(c2ccc(O)cn2)CC1 [I.67, [4-(5-Hydroxy-pyridin-2-yl)-piperazin-1-yl]-indan-2-yl-methanone]
inhibition at 10 µM (human ME1 enzyme): > 90% | inhibition at 10 µM (human ME3 enzyme): > 90% | inhibition at 10 µM (human ME2 enzyme): 50 to 69%
